Measurements: patent US20210261538A1, “PROTEIN ARGININE METHYLTRANSFERASE 5 (PRMT5) DEGRADATION / DISRUPTION COMPOUNDS AND METHODS OF USE” (ICAHN SCHOOL OF MEDICINE AT MOUNT SINAI, priority 2018, published 2021)

How the values were obtained:
MTAP-deleted cells = details: cited from earlier work
PRMT5 = PRMT5 (Homo sapiens, UniProt O14744); test: Western blot of PRMT5 protein levels in MCF-7 cells; type: cell-based; design: endogenous in cells; host or cells: MCF-7; details: for suppressing PRMT5 expression: MCF-7 cells (Examples 90-92)
PRMT5, sequence (O14744 whole entry): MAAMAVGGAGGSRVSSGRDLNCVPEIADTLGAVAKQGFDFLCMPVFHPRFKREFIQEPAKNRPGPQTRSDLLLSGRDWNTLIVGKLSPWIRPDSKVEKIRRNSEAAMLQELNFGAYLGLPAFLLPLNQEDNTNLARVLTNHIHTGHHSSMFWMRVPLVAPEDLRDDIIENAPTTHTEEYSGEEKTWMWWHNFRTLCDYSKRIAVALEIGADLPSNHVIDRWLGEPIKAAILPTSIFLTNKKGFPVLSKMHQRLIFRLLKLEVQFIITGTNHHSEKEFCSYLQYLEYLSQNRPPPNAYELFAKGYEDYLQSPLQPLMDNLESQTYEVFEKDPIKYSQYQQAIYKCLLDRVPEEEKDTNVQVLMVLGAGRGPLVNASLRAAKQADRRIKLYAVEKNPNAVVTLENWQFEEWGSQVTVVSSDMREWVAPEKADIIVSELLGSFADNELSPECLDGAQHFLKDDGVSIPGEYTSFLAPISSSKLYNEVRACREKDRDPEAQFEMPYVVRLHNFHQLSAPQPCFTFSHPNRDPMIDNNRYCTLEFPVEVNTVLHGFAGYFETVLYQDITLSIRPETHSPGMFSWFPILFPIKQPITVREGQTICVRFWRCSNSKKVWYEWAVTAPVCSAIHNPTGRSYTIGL
PRMT5, sequence (Q9BQA1 whole entry partner): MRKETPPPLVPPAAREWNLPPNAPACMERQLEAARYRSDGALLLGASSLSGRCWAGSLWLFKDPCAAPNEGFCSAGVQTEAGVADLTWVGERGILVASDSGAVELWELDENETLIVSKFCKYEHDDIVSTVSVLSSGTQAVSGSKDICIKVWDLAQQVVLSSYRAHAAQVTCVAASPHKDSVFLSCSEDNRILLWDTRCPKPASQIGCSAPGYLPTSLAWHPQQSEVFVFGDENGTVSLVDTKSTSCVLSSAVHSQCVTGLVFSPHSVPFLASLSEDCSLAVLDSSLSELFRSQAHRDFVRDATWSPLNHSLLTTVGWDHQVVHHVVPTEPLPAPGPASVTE
Protocol: MCF-7 cells, HEK293T cells and HeLa cells were cultured in Dulbecco's Modified Eagle Medium (DMEM) supplemented with 10% fetal bovine serum (FBS) in 5% CO2 at 37° C. Jurkat cells were cultured in RPMI 1640 medium supplemented with 10% FBS in 5% CO2 at 37° C. H2171 cells were cultured in HITES medium supplemented with 10% FBS in 5% CO2 at 37° C. HCT116 were cultured in McCoy's 5A medium supplemented with 10% fetal bovine serum (FBS) in 5% CO2 at 37° C. All the cells lines were treated with 5 μM (or indicated concentration) of PRMT5 inhibitor (EPZ015666) or degraders, or equivalent volume of DMSO for 6 days (or indicated time points). Fresh compounds were constituted in medium and used for every 2 days. The antibodies used in this study are: PRMT5 antibody (Active Motif), (3-actin antibody (Sigma), SDMA antibody (collaboration with Cell Signaling Technologies). Cell cultures were harvested at the end of compound treatments and applied subjected to western blotting assay. Briefly, cells were washed with PBS and lysed with RIPA lysis buffer for 20 minutes on ice. Then lysates were centrifuged and the clear supernatant were collected. SDS loading buffer was added to the lysates and then the mixture was boiled at 100° C. for 5 minutes. Samples were loaded to 10% or 12% SDS-PAGE gel and ran at 120V for 1.5 hours. Then the proteins were transferred to PVDF membrane and blocked in 5% milk fat at room temperature for 1 hour. Then the membranes were incubated with indicated antibodies at 4° C. overnight. Membranes were washed with PBST buffer three times for 10 minutes each time and incubated with HRP-conjugated (horse radish peroxidase) secondary antibodies at room temperature for 1 hour. Again the membranes were washed with PBST buffer three times for 10 minutes each time. Finally, the indicated proteins on the membranes were visualized with ECL (enhanced chemiluminescence) reagents. MCF-7 cells were treated with DMSO or indicated compounds at 5 μM for 6 days. […] MCF-7 cells were treated with DMSO or indicated serial dilutions of compounds for 6 days. The PRMT5 protein levels were determined by Western blot.

cancer cells = details: EPZ015666 alone (Jin, 2016; Kryukov, 2016); cited from earlier work
MCF-7 cells = test: Cell proliferation assay (Cell-Titer Glo) in MCF-7 cells; type: cell-based; details: 5 μM, 10 days
Protocol: The same starting number of MCF-7 cells were treated with DMSO, 5 μM EPZ015666 or YS43-22 for up to 10 days. Every two days, fresh compounds were constituted in DMEM medium and added to the cell culture. Relative cell numbers were counted every two days (i.e. day 0, 2, 4, 6, 8 and 10) using Cell-Titer Glo kit (Promega). MCF-7 cells were treated with DMSO, EPZ015666 (5 μM), or YS43-22 (5 μM) for 10 days.

PRMT5 substrates = test: Arginine symmetric dimethylation (SDMA Western blot) in MCF-7 cells; type: cell-based; details: MCF-7 cells (Examples 90-92)
Protocol: MCF-7 cells, HEK293T cells and HeLa cells were cultured in Dulbecco's Modified Eagle Medium (DMEM) supplemented with 10% fetal bovine serum (FBS) in 5% CO2 at 37° C. Jurkat cells were cultured in RPMI 1640 medium supplemented with 10% FBS in 5% CO2 at 37° C. H2171 cells were cultured in HITES medium supplemented with 10% FBS in 5% CO2 at 37° C. HCT116 were cultured in McCoy's 5A medium supplemented with 10% fetal bovine serum (FBS) in 5% CO2 at 37° C. All the cells lines were treated with 5 μM (or indicated concentration) of PRMT5 inhibitor (EPZ015666) or degraders, or equivalent volume of DMSO for 6 days (or indicated time points). Fresh compounds were constituted in medium and used for every 2 days. The antibodies used in this study are: PRMT5 antibody (Active Motif), (3-actin antibody (Sigma), SDMA antibody (collaboration with Cell Signaling Technologies). Cell cultures were harvested at the end of compound treatments and applied subjected to western blotting assay. Briefly, cells were washed with PBS and lysed with RIPA lysis buffer for 20 minutes on ice. Then lysates were centrifuged and the clear supernatant were collected. SDS loading buffer was added to the lysates and then the mixture was boiled at 100° C. for 5 minutes. Samples were loaded to 10% or 12% SDS-PAGE gel and ran at 120V for 1.5 hours. Then the proteins were transferred to PVDF membrane and blocked in 5% milk fat at room temperature for 1 hour. Then the membranes were incubated with indicated antibodies at 4° C. overnight. Membranes were washed with PBST buffer three times for 10 minutes each time and incubated with HRP-conjugated (horse radish peroxidase) secondary antibodies at room temperature for 1 hour. Again the membranes were washed with PBST buffer three times for 10 minutes each time. Finally, the indicated proteins on the membranes were visualized with ECL (enhanced chemiluminescence) reagents. MCF-7 cells were treated with EPZ015666 or YS43-22 at indicated compound concentrations (μM) for 6 days.

Row | PRMT5 protein levels (PRMT5; MCF-7 cells, 5 μM, 6 days, Western blot) | suppressing PRMT5 expression (PRMT5) | PRMT5 protein levels, concentration and time dependence (PRMT5; MCF-7 cells, serial dilutions of compounds, 6 days, Western blot) | SMILES | anti-proliferation effect compared with genetic PRMT5 knockdown (MTAP-deleted cells) | inhibition of cancer cell proliferation (cancer cells) | cell growth of MCF-7 cells (MCF-7 cells) | suppressing PRMT5 activity (PRMT5 substrates)
1 | no effect | – | – | O=C(NC[C@H](O)CN1CCc2ccccc2C1)c1cc(NC2COC2)ncn1 [EPZ015666, reference compound] | did not lead to a similar anti-proliferation effect | failed to optimally inhibit | significantly inhibited | –
2 | – | especially effective | – | Cc1ncsc1-c1ccc(CNC(=O)[C@@H]2C[C@@H](O)CN2C(=O)[C@@H](NC(=O)COCCOCCOCCOCCOCC(=O)N2CC(Nc3cc(C(=O)NC[C@H](O)CN4CCc5ccccc5C4)ncn3)C2)C(C)(C)C)cc1 [YS31-60, N-((S)-3-(3,4-dihydroisoquinolin-2(1H)-yl)-2-hydroxypropyl)-6-((1-((S)-19-((2S,4R)-4-hydroxy-2-((4-(4-methylthiazol-5-yl)benzyl)carbamoyl)pyrrolidine-1-carbonyl)-20,20-dimethyl-17-oxo-3,6,9,12,15-pentaoxa-18-azahenicosanoyl)azetidin-3-yl)amino)pyrimidine-4-carboxamide] | – | – | – | especially effective
3 | – | especially effective | concentration- and time-dependent | O=C1CCC(N2C(=O)c3cccc(NCCCCCCC(=O)N4CC(Nc5cc(C(=O)NC[C@H](O)CN6CCc7ccccc7C6)ncn5)C4)c3C2=O)C(=O)N1 (stereo partly drawn) [YS43-8, N-((S)-3-(3,4-dihydroisoquinolin-2(1H)-yl)-2-hydroxypropyl)-6-((1-(7-((2-(2,6-dioxopiperidin-3-yl)-1,3-dioxoisoindolin-4-yl)amino)heptanoyl)azetidin-3-yl)amino)pyrimidine-4-carboxamide] | – | – | – | especially effective
4 | – | especially effective | – | Cc1ncsc1-c1ccc(CNC(=O)[C@@H]2C[C@@H](O)CN2C(=O)[C@@H](NC(=O)CCOCCOCCOCCOCCOCCC(=O)N2CC(Nc3cc(C(=O)NC[C@H](O)CN4CCc5ccccc5C4)ncn3)C2)C(C)(C)C)cc1 [YS43-16, N-((S)-3-(3,4-dihydroisoquinolin-2(1H)-yl)-2-hydroxypropyl)-6-((1-((S)-21-((2S,4R)-4-hydroxy-2-((4-(4-methylthiazol-5-yl)benzyl)carbamoyl)pyrrolidine-1-carbonyl)-22,22-dimethyl-19-oxo-4,7,10,13,16-pentaoxa-20-azatricosanoyl)azetidin-3-yl)amino)pyrimidine-4-carboxamide] | – | – | – | especially effective
